The values below come from the supplement of paper PMC10307832.

Assay in all cases: relative viability (nuclei count vs DMSO), 5 days (fraction); higher = more cells survive
Compound in assay [1]: C1=CC=C(C(=C1)C2=CC=C(C=C2)C3=CSC4=C3C(=C(C(=O)N4)C#N)O)O + CC(=O)Nc1cccc(-n2c(=O)n(C3CC3)c(=O)c3c(Nc4ccc(I)cc4F)n(C)c(=O)c(C)c32)c1 [Trametinib] (partner 0.02 µM)
A digest of the protocol:
(§1)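 Relative viability divides the nuclei count in treated wells by that in vehicle wells. Lung cancer cell lines were seeded in 1536-well plates, dosed by pin tool the next day, and fixed and stained after 5 days in one step with final 0.05% Triton X-100, 1% formaldehyde and 1 ug/ml Hoechst. Dosing was a single drug or a fixed anchor-drug dose plus five library-drug doses (not always all listed) in √10 steps, and values are medians of duplicate plates imaged at 4×.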

Compound in assay [2]: C1=CC=C(C(=C1)C2=CC=C(C=C2)C3=CSC4=C3C(=C(C(=O)N4)C#N)O)O + CC(=O)c1c(C)c2cnc(Nc3ccc(N4CCNCC4)cn3)nc2n(C2CCCC2)c1=O [Palbociclib] (partner 0.5 µM)
A digest of the protocol:
as §1

Compound in assay [3]: C1=CC=C(C(=C1)C2=CC=C(C=C2)C3=CSC4=C3C(=C(C(=O)N4)C#N)O)O + C[C@@H](Oc1cc(-c2cnn(C3CCNCC3)c2)cnc1N)c1c(Cl)ccc(F)c1Cl [Crizotinib] (partner 1 µM)
In outline: as §1

Compound in assay [4]: O=C(CCCCCCNC(=O)c1cnc(N(c2ccccc2)c2ccccc2)nc1)NO [Ricolinostat] + CC(=O)c1c(C)c2cnc(Nc3ccc(N4CCNCC4)cn3)nc2n(C2CCCC2)c1=O [Palbociclib] (partner 0.5 µM)
In outline: as §1

Compound in assay [5]: O=C(CCCCCCNC(=O)c1cnc(N(c2ccccc2)c2ccccc2)nc1)NO [Ricolinostat] + N=C(N)NC(=N)NCCc1ccccc1 [Phenformin] (partner 250 µM)
In outline: as §1

Regarding NCI-H1792, the relative viability in assay [1] (first compound 0.253 µM) worked out at 0.536; in assay [1] (first compound 0.8 µM) it was 0.424; in assay [1] (first compound 2.53 µM), 0.364; in assay [1] (first compound 8 µM), 0.165; in assay [2] (first compound 0.253 µM), 0.65; in assay [2] (first compound 2.53 µM), 0.895. Besides, the relative viability in assay [2] (first compound 8 µM) was 0.355; in assay [3] (first compound 0.253 µM) it was 0.915; in assay [3] (first compound 0.8 µM), 1.15; in assay [3] (first compound 2.53 µM), 1.13; in assay [3] (first compound 8 µM) it was 0.43; in assay [4] (first compound 0.253 µM) it was 0.635. The relative viability in assay [4] (first compound 0.8 µM) came to 0.684; in assay [4] (first compound 2.53 µM) it was 0.742; in assay [5] (first compound 0.08 µM) it was 0.29; in assay [5] (first compound 0.253 µM) it was 0.233; in assay [5] (first compound 0.8 µM), 0.178; in assay [5] (first compound 2.53 µM) it was 0.245.
